Reference: patent US20100178330A1, “ASYMMETRIC LIPOSOMES AND USES IN MEDICAL FIELD THEREOF” (priority 2007, published 2010)

Key:
[1] = test system: M. tuberculosis H37Rv infected dTHP-1 cells; experiment: Phagolysosome maturation: mycobacteria in LAMP-1 expressing compartments (anti-LAMP-1 / auramin confocal microscopy); format: cell-based; conditions: EGTA added to cells stimulated with PS/PA liposomes; FIG. 8
[2] = test system: M. tuberculosis H37Rv infected dTHP-1 cells; experiment: Phagolysosome maturation: mycobacteria in acid compartments (Lyso Tracker Red / auramin confocal microscopy); format: cell-based; conditions: 3 mM EGTA added to cells stimulated with PS/PA liposomes; FIG. 7

For O=C(O)CN(CCOCCOCCN(CC(=O)O)CC(=O)O)CC(=O)O [EGTA], the “effect on PS/PA liposome induced phagolysosome maturation (LAMP-1)” value [1] was “inhibits” and the “effect on PS/PA liposome induced phagosome acidification” value [2] was “inhibits the acidification process of phagosome restoring the initial conditions”.
